Like-named read-outs stand apart in the source and are kept apart here.

These results are taken from patent US8106055B2, “Substituted amide compounds” (Gruenenthal GmbH, priority 2007, dated 2012).

Assay [1] has as its target T1, human μ opiate receptor (Homo sapiens, UniProt P35372).
T1 construct: purchased PerkinElmer Life Sciences, Zaventem, Belgium RB-HOM; host or cells: CHO-K1 cells (membrane preparation)
As to the kind of experiment: Affinity for the human μ opiate receptor ([3H]-naloxone displacement, CHO-K1 receptor membrane preparation, SPA). It is filed as binding. Particulars: test concentration 1 μM; for inhibition at 1 µM: 1.5 h. The gist of the method: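 SPA, CHO-K1 hμ membranes; 1 nmol/l [3H]-naloxone; Tris-HCl 50 mmol/l + 0.06% BSA; 90 min RT; NSB with 100 μmol/l naloxone; β-counting. Readout: % inhibition of specific binding at 1 μM test compound.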

Assay [2] addresses T2, human bradykinin 1 receptor (B1R) (Homo sapiens, UniProt P46663).
T2 construct: expressed in transfected cells; host or cells: CHO K1 cells
T2 sequence (P46663 1-353): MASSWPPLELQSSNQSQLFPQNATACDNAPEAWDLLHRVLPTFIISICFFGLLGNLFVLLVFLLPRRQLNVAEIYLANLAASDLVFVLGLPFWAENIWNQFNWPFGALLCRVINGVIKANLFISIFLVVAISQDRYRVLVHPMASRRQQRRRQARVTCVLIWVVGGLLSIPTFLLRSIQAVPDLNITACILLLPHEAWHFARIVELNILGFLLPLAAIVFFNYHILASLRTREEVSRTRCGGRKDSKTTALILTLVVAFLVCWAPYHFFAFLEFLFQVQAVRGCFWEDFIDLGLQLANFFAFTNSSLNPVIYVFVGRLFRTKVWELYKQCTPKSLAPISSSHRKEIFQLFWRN
The assay can be described thus: Functional investigation on the human bradykinin 1 receptor (B1R), Ca2+ FLIPR assay in CHO K1 hB1R cells. It is filed as cell-based. Particulars: test substance 10 μM, Ca2+ FLIPR, CHO K1 hB1R cells; for inhibition at 10 µM: CHO-K1, B1R antagonism human, read-out: B1R Ant. h [10 μM] % Inhibition; for B1R Ant. h [10 μM] % Inhibition: B1R antagonism human. In short, it runs like this: (§1)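 Peak Ca2+-dependent fluorescence in B1R-transfected CHO K1 cells measures antagonism of an EC80 agonist challenge given 10-20 min after compound. Agonist is Lys-Des-Arg9-bradykinin for human, Des-Arg9-bradykinin for rat receptor.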

Assay [3] has as its target T3, bradykinin 1 receptor (B1R) of the rat (Rattus norvegicus, UniProt P97583).
T3 construct: expressed in transfected cells; host or cells: CHO K1 cells
T3 sequence (P97583 1-337): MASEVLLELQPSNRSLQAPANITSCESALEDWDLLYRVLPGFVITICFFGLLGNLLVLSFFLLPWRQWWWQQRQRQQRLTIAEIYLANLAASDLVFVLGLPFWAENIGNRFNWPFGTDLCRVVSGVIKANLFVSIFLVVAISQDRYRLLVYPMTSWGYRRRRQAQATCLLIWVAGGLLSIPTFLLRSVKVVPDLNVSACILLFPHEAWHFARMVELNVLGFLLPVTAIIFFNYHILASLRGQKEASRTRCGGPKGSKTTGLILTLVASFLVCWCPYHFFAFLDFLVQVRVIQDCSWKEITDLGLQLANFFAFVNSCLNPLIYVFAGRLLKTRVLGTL
The assay can be described thus: Functional investigation on the rat bradykinin 1 receptor (B1R), Ca2+ FLIPR assay in CHO K1 rB1R cells. It is filed as cell-based. Particulars: test substance 10 μM, Ca2+ FLIPR, CHO K1 rB1R cells; for inhibition at 10 µM: CHO-K1, B1R antagonism rat, read-out: B1R Ant. r [10 μM] % Inhibition; for B1R Ant. r [10 μM] % Inhibition: B1R antagonism rat. In short, it runs like this:
as §1

Setting [4] is: Table 3, to be read in the same way as Table 1, read-out: μ.

T1 sequence (P35372 whole entry): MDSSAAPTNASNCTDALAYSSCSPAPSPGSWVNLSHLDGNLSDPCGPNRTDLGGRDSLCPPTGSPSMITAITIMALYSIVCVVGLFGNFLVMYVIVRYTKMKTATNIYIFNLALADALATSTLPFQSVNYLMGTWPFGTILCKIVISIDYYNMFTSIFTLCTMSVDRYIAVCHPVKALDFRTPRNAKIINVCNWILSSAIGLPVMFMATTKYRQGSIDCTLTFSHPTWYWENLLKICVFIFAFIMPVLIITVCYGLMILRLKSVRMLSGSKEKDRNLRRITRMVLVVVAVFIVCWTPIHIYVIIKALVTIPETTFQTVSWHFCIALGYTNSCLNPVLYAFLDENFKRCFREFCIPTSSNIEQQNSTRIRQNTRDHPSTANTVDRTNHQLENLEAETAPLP

For the compound `O=C(COC1CCN(S(=O)(=O)c2c(Cl)cc(Cl)cc2Cl)C1)NCC1CCC(C(c2ccccc2)N2CCOCC2)CC1` (stereo not drawn) [Example 743, N-((4-(morpholino(phenyl)methyl)cyclohexyl)methyl)-2-(1-(2,4,6-trichlorophenylsulfonyl)pyrrolidin-3-yloxy)acetamide], the inhibition at 1 µM in assay [1] (setting [4]) stood at 8%. Further, the inhibition at 10 µM was -3% in assay [2] and 10% in assay [3].
For the compound `CN(CCOCC(=O)NC1CCC(C(c2ccccc2)N2CCOCC2)CC1)S(=O)(=O)c1c(Cl)cc(Cl)cc1Cl` (stereo not drawn) [Example 638, N-(4-(morpholino(phenyl)methyl)cyclohexyl)-2-(2-(2,4,6-trichloro-N-methylphenylsulfonamido)ethoxy)acetamide], the inhibition at 1 µM in assay [1] (setting [4]) worked out at 2%. Further, the “B1R Ant. h [10 μM] % Inhibition” value in assay [2] is 37%. Moreover, in assay [3], the “B1R Ant. r [10 μM] % Inhibition” value is on record as 21%.
With `COc1cc(C)c(S(=O)(=O)N(C)CCOCC(=O)NC2CCC(C(c3ccccc3)N3CCCC3)CC2)c(C)c1` (stereo not drawn) [Example 628, 2-(2-(4-methoxy-N,2,6-trimethylphenylsulfonamido)ethoxy)-N-(4-(phenyl(pyrrolidin-1-yl)methyl)cyclohexyl)acetamide], the inhibition at 1 µM in assay [1] (setting [4]) was 36%. The figures for the inhibition at 10 µM in assay [2] and in assay [3] were 105% and 89%, respectively.
In the same order, the values of `COc1cc(C)c(S(=O)(=O)N2CCCC2COCC(=O)NC2CCC(C(c3ccccc3)N3CCN(C)CC3)CC2)c(C)c1` (stereo not drawn) [Example 695, 2-((1-(4-methoxy-2,6-dimethylphenylsulfonyl)pyrrolidin-2-yl)methoxy)-N-(4-((4-methylpiperazin-1-yl)(phenyl)methyl)cyclohexyl)acetamide] are 27%, 103% and 103%.
In the same order, the values of `COc1cc(C)c(S(=O)(=O)N2CCCC(COCC(=O)NC3CCC(C(CCc4ccccc4)N4CCCCC4)CC3)C2)c(C)c1` (stereo not drawn) [Example 740, 2-((1-(4-methoxy-2,6-dimethylphenylsulfonyl)piperidin-3-yl)methoxy)-N-(4-(3-phenyl-1-(piperidin-1-yl)propyl)cyclohexyl)acetamide] are 15%, 79% and 70%.
In the same order, the values of `CN1CCN(C(c2ccccc2)C2CCC(NC(=O)COCCN(C)S(=O)(=O)c3c(Cl)cc(Cl)cc3Cl)CC2)CC1` (stereo not drawn) [Example 714, N-(4-((4-methylpiperazin-1-yl)(phenyl)methyl)cyclohexyl)-2-(2-(2,4,6-trichloro-N-methylphenylsulfonamido)ethoxy)acetamide] are 52%, 104% and 64%.
Regarding `CN(CCOCC(=O)NC1CCC(C(c2ccccc2)N2CCCC2)CC1)S(=O)(=O)c1ccc(Cl)cc1Cl` (stereo not drawn) [Example 627, 2-(2-(2,4-dichloro-N-methylphenylsulfonamido)ethoxy)-N-(4-(phenyl(pyrrolidin-1-yl)methyl)cyclohexyl)acetamide], the inhibition at 1 µM in assay [1] (setting [4]) turned out to be 69%. Further, the values for the inhibition at 10 µM in assay [2] and in assay [3] were 75% and 35%, respectively.
As to `CN(C)C(c1ccccc1)C1CCC(CNC(=O)COCC2CCCN2S(=O)(=O)c2c(Cl)cc(Cl)cc2Cl)CC1` (stereo not drawn) [Example 622, N-[4-(dimethylaminophenylmethyl)-cyclohexylmethyl]-2-[1-(2,4,6-trichlorobenzenesulfonyl)-pyrrolidin-2-ylmethoxy]-acetamide], the inhibition at 1 µM in assay [1] (Table 2, read-out: μ receptor) turned out to be 96%. The figures for the inhibition at 10 µM in assay [2] and in assay [3] were 106% and 68%, respectively.
Turning to “N-((4-(morpholino(phenyl)methyl)cyclohexyl)methyl)-2-((1-(2,4,6-trichlorophenylsulfonyl)piperidin-3-yl)methoxy)acetamide [Example 713]”, the μ in assay [1] (Table 3, to be read in the same way as Table 1) was found to be 14 % inhibition. Moreover, in assay [2], the “B1R Ant. h [10 μM] % Inhibition” value is −15%. Further, the “B1R Ant. r [10 μM] % Inhibition” value in assay [3] amounted to 16%.
On to `CN(CCOCC(=O)NC1CCC(C(c2ccccc2)N2CCOCC2)CC1)S(=O)(=O)c1ccc(Cl)cc1Cl` (stereo not drawn) [Example 680, 2-(2-(2,4-dichloro-N-methylphenylsulfonamido)ethoxy)-N-(4-(morpholino(phenyl)methyl)cyclohexyl)acetamide], for which the inhibition at 1 µM in assay [1] (setting [4]) is 4%. Further, the values for the inhibition at 10 µM in assay [2] and in assay [3] were 21% and 23%, respectively.
In the same order, the values of `COc1cc(C)c(S(=O)(=O)N2CCCC(COCC(=O)NCC3CCC(C(CCc4ccccc4)N4CCOCC4)CC3)C2)c(C)c1` (stereo not drawn) [Example 756, 2-((1-(4-methoxy-2,6-dimethylphenylsulfonyl)piperidin-3-yl)methoxy)-N-((4-(1-morpholino-3-phenylpropyl)cyclohexyl)methyl)acetamide] are 5%, 64% and 43%.
The matching figures for `COc1cc(C)c(S(=O)(=O)N2CCCC(OCC(=O)NCC3CCC(C(CCc4ccccc4)N4CCCC4)CC3)C2)c(C)c1` (stereo not drawn) [Example 731, 2-(1-(4-methoxy-2,6-dimethylphenylsulfonyl)piperidin-3-yloxy)-N-((4-(3-phenyl-1-(pyrrolidin-1-yl)propyl)cyclohexyl)methyl)acetamide]: 49%, 101% and 80%.
In the same order, the values of `COc1cc(C)c(S(=O)(=O)N2CCCC(OCC(=O)NCC3CCC(C(CCc4ccccc4)N4CCOCC4)CC3)C2)c(C)c1` (stereo not drawn) [Example 748, 2-(1-(4-methoxy-2,6-dimethylphenylsulfonyl)piperidin-3-yloxy)-N-((4-(1-morpholino-3-phenylpropyl)cyclohexyl)methyl)acetamide] are 20%, 92% and 78%.
Consider `CN(C)C(c1ccccc1)C1CCC(CNC(=O)CCOCN(C)S(=O)(=O)c2c(Cl)cc(Cl)cc2Cl)CC1` (stereo not drawn) [Example 624, N-[4-(dimethylaminophenylmethyl)-cyclohexylmethyl]-3-{[methyl-(2,4,6-trichlorobenzenesulfonyl)-amino]-methoxy}-propionamide], for which, in assay [1] (Table 2, read-out: μ receptor), the inhibition at 1 µM was determined as 98%. In addition, the values for the inhibition at 10 µM in assay [2] and in assay [3] were 104% and 81%, respectively.
As for `CN(CCOCC(=O)NCC1CCC(C(c2ccccc2)N2CCOCC2)CC1)S(=O)(=O)c1c(Cl)cc(Cl)cc1Cl` (stereo not drawn) [Example 639, N-((4-(morpholino(phenyl)methyl)cyclohexyl)methyl)-2-(2-(2,4,6-trichloro-N-methylphenylsulfonamido)ethoxy)acetamide], the inhibition at 1 µM in assay [1] (setting [4]) came to 3%. Also, the inhibition at 10 µM in assay [2] amounted to 53%; in assay [3], 41%.
In the same order, the values of `CN1CCN(C(c2ccccc2)C2CCC(NC(=O)COC3CCCN(S(=O)(=O)c4c(Cl)cc(Cl)cc4Cl)C3)CC2)CC1` (stereo not drawn) [Example 692, N-(4-((4-methylpiperazin-1-yl)(phenyl)methyl)cyclohexyl)-2-(1-(2,4,6-trichlorophenylsulfonyl)piperidin-3-yloxy)acetamide] are 65%, 78% and 41%.
In the case of `COc1cc(C)c(S(=O)(=O)N2CCCC(COCC(=O)NC3CCC(C(c4ccccc4)N4CCCC4)CC3)C2)c(C)c1` (stereo not drawn) [Example 654, 2-((1-(4-methoxy-2,6-dimethylphenylsulfonyl)piperidin-3-yl)methoxy)-N-(4-(phenyl(pyrrolidin-1-yl)methyl)cyclohexyl)acetamide], in assay [1] (setting [4]), the inhibition at 1 µM was determined as 53%. Moreover, the inhibition at 10 µM in assay [2] turned out to be 80%; in assay [3], 46%.
